Results from ChEMBL document CHEMBL5390280, “Design, Synthesis, and Biological Evaluation of an Orally Bioavailable, Potent, and Selective ROCK2 Inhibitor for Psoriasis Treatment” (J Med Chem, 2023).
Values after ≈ are worked out from the molar mass of the structure shown. Active and inactive are the calls of the source. The calls are words filed in the database; no cut-off is given here.

Experiments:
Mus musculus [1] = experiment: Anti-inflammatory activity in Balb/c mouse model of IMQ-induced skin inflammation assessed as reduction in skin erythema at 20 to 80 mg/kg, po administered daily for 7 days; assay type: functional, organism-based; conditions: dose 20-80 mg/kg, time 7.0 day
[2] = Solubility in aqueous buffer at pH 7.4; assay type: physicochemical
[3] = Clearance in Balb/c mouse at 10 mg/kg, iv measured for 0.08 to 24 hrs by LC-MS/MS analysis; assay type: ADME, organism-based; conditions: in vivo, time 0.08-24 hrs
Mus musculus [4] = experiment: Anti-inflammatory activity in Balb/c mouse model of IMQ-induced skin inflammation assessed as decrease in KGF mRNA level in dorsal skin at 40 to 80 mg/kg, po administered daily for 7 days by RT-qPCR analysis; assay type: functional, organism-based; conditions: dose 40-80 mg/kg, time 7.0 day
[5] = AUC (0 to infinity) in Balb/c mouse at 10 mg/kg, iv measured for 0.08 to 24 hrs by LC-MS/MS analysis; assay type: ADME, organism-based; design: dose 10 mg/kg, time upper 24 hrs, time lower 0.08 hrs, route iv; conditions: in vivo
Mus musculus [6] = experiment: Anti-inflammatory activity in Balb/c mouse model of IMQ-induced skin inflammation assessed as decrease in IL-17A+ T cells in dorsal skin administered orally daily for 7 days by high power field microscopy; assay type: functional, organism-based; conditions: T-cell, dose 20-80 mg/kg, route po, time 7.0 day
Mus musculus [7] = experiment: Anti-inflammatory activity in Balb/c mouse model of IMQ-induced skin inflammation assessed as reduction in skin scales at 20 to 80 mg/kg, po administered daily for 7 days; assay type: functional, organism-based; conditions: dose 20-80 mg/kg, time 7.0 day
Mus musculus [8] = experiment: Anti-inflammatory activity in Balb/c mouse model of IMQ-induced skin inflammation assessed as decrease in Ki67+ cells in epidermis of dorsal skin at 80 mg/kg, po administered daily for 7 days by IHC analysis; assay type: functional, organism-based; conditions: time 7.0 day
Mus musculus [9] = experiment: In vivo inhibition of ROCK2 in Balb/c mouse model of IMQ-induced skin inflammation assessed as decrease in pSTAT5+ cells in dorsal skin at 20 to 80 mg/kg, po administered daily for 7 days by high power field microscopy; assay type: functional, organism-based; conditions: dose 20-80 mg/kg, time 7.0 day
Mus musculus [10] = experiment: Anti-inflammatory activity in Balb/c mouse model of IMQ-induced skin inflammation assessed as reduction in epidermal thickness of dorsal skin at 40 to 80 mg/kg, po administered daily for 7 days by H and E staining based analysis; assay type: functional, organism-based; conditions: dose 40-80 mg/kg, time 7.0 day
Mus musculus [11] = experiment: Anti-inflammatory activity in Balb/c mouse model of IMQ-induced skin inflammation assessed as decrease in IL-22 mRNA level in dorsal skin at 20 to 40 mg/kg, po administered daily for 7 days by RT-qPCR analysis; assay type: functional, organism-based; conditions: dose 20-40 mg/kg, time 7.0 day
[12] = Lipophilicity, log D of the compound at pH 7.4; assay type: physicochemical; conditions: buffer
HaCaT = experiment: Anti-psoriasis effect in KGF-stimulated human HaCaT cells assessed as decrease in MMP-2 level at 2 to 5 uM incubated for 24 hrs by Western blot analysis; assay type: functional, cell-based; conditions: dose 2-5 µM
Mus musculus [13] = experiment: Anti-inflammatory activity in Balb/c mouse model of IMQ-induced skin inflammation assessed as decrease in serum IL-17F level at 40 mg/kg, po administered daily for 7 days by IHC analysis; assay type: functional, organism-based; conditions: time 7.0 day

solubility [2]: 193 µg/mL (≈ 433 µM)
clearance [3]: 158 mL/min/kg
AUC(0-inf) [5]: 1060 ng·h/mL
logD [12]: 0.84
Compound: Cc1cc(=O)n(-c2cccc(CN[C@H]3CCC[C@H](Nc4ccc5[nH]ncc5c4)C3)c2)cc1F
Activity (Mus musculus [1]): Active
Activity (Mus musculus [4]): Active
Activity (Mus musculus [6]): Dose-Dependent Effect
Activity (Mus musculus [7]): Active
Activity (Mus musculus [8]): Active
Activity (Mus musculus [9]): Active
Activity (Mus musculus [10]): Active
Activity (Mus musculus [11]): Active
Activity (HaCaT): Active
Activity (Mus musculus [13]): Active
